Assay results as given in US6054437A, “Method for inducing death of neoplastic cells using piperazine derivatives” (Hitachi Chemical Research Center, Inc., priority 1997, dated 2000).
“Also recorded” adds a separate entry of the source. Structures can show the parent of a compound that is named as a salt. Where a SMILES comes first, the peptide text is derived from it. [ ]: non-standard residue; d: D form. Nle = CCCC[C@H](N)C(=O)O

Tests used:
[1] = test system: cells; experiment: Long-term assay (cell survival assay), toxicity to cells; assay type: cell-based; conditions: long-term assays (cell survival assay)
Experimental: (§1) Cell survival was assayed in cultured tumor cells. From 500-1000 cells per well were plated in 24-welled culture dishes and exposed to drug for seven days. After drug exposure, a computerized cell imaging technique was utilized to ascertain the number of viable cells remaining in each culture. From the data, survival curves were plotted and a ED50 (drug concentration that permits 50% cell survival) were calculated.

[2] = test system: cancer cells having multidrug resistance; experiment: Induction of cell death in cancer / multidrug-resistant cancer cells (comparison compounds); assay type: cell-based; conditions: data omitted
Description: The specifically defined present piperazine derivatives having epoxy groups are believed to work through an epoxide group, but E-64 also contains an epoxide group. […] It is believed that not only epoxy group but also a piperazine ring are essential to induction of cell death in cancer. […] Other compounds having similar structures to the present piperazine derivatives, with respect to piperazine rings when present, and epoxy groups, have been tested (data omitted here), but no significant effect was observed, meaning that surprising and unexpected effects on induction of cell death in cancer, i.e., reversing mdr and in inducing death of cancer cells without significant toxicity to normal tissues, which appear to be pharmacologically beyond prevention of metastasis in cancer, are found in the specifically defined present compounds.

[3] = test system: epidermoid carcinoma A431 cells; conditions: cited from earlier work
[4] = test system: prostate cancer cell lines; experiment: Cancer cell death assay (LDH release), prostate lines; assay type: cell-based, human; conditions: compound alone, 24 hours
Experimental: (§2) 1. Cancer Cell Death Assay
(§3) Cell death was measured quantitatively by the release of a marker intracellular enzyme, lactate dehydrogenase (LDH), from damaged or killed cells. LDH released into the extracellular fluid, was measured 24 hours after drug exposure to cancer cells and the enzyme activity was determined by the method of Decker et al. (J. Immunolog Methods 15:61-99, 1988).
(§4) All cell lines used in the present study were obtained from the American Type Tissue Culture Laboratory and cultured according to their specifications. All were human cancer lines unless otherwise noted. The following cell lines and their tissue of origin used in our studies were:
(§5) The first assays performed measured the anti-neoplastic activity of NCO-700, alone, in cell death assays of a wide variety of human cancer cells. The results of these experiments are shown in FIGS. 1-6, where a dose-response curve of NCO-700 versus % LDH release is plotted, with higher values of LDH released indicating greater anti-neoplastic activity (apoptosis).
(§6) In FIG. 8, a dose-response curve is shown of the effect of TOP-008 on the killing of breast, prostate and colon cell lines.

[5] = test system: WIDR (colon); experiment: Cancer cell survival assay, WIDR; assay type: cell-based, human; conditions: FIG. 16 versus FIG. 31
Experimental: as §1
The cancer cell survival assay is an important additional in vitro assay to assess the anti-neoplastic activity of compounds as the cells are given a prolonged exposure (seven days) to the drug. FIGS. 9-16 show the effect of increasing the dose of NCO-700 on the survival of a number of cancer cell lines. […] In the figures, the vertical axis is the object area, which is the number of surviving cancer cells calculated by a computer.
(§7) FIGS. 26-31 show the effect of increasing the dose of TOP-008 against a number of cancer cell lines. […] For example, if the activity of NCO-700 and TOP-008 are compared against the human colon cancer cell line WIDR (FIG. 16 in Experiment 1 versus FIG. 31) it is seen that the effective dose of TOP-008 is much lower in this particular assay.

[6] = test system: HS-578T (breast); experiment: Apoptosis detection assay (annexin V / propidium iodide, flow cytometry); assay type: cell-based, human; conditions: 50 μM and 25 μM (FIG. 36)
Experimental: Anti-neoplastic activity of TOP-008 was tested using a commercially available kit, Apoptosis Detection Kit, from R & D SYSTEMS (Minnesota) in which annexin V, a member of the calcum and phospholipid binding proteins, is used to detect apoptosis, following the protocol recommended by the manufacturer. TOP-008 was tested at a concentration of 50 μM, using Human breast cancer cell line HS-578T. Cells were washed in cold PBS twice and resuspended in a small volume of 1× binding buffer. Fluorescein-labeled annexin V and propidium iodide were added to the cells. The cells expressing phosphatidylserine on the outer leaflet of cell membranes bind annexin V and cells with a compromised cell membrane allow propidium iodide to bind to the cellular DNA. The resulting cells when immediately analyzed by flow cytometry can present three potential populations of cells: live cells which will not stain with either fluorochrome, necrotic cells which will stain with both fluorochrome, and cells undergoing apoptosis which will stain only with the annexin V-FITC reagent. Analysis was performed on cytometers equipped with a single laser emitting excitation light at 488 nm. The annexin V-FITC-generated signal was detected in the FITC signal detector (FL1). The results are shown in FIG. 36 in which the […]. […]

[7] = test system: pancreatic cancer cell lines ASPC-1 and HS-766T; experiment: Cancer cell death assay (LDH release), pancreatic lines; assay type: cell-based, human; conditions: 25 μM, 24 hours
Experimental: as §3
As described in Experiment 1, the cancer cell death assays were performed to measure anti-neoplastic activity of the compounds, NCO-700, TOP-001, TOP-003, TOP-005, TOP-006, TOP-008, TOP-009, TOP-010, TOP-012, TOP-013, TOP-015, and TOP-017.
The following cell lines were obtained from the American Type Tissue Culture Laboratory and cultured according to their specifications: Human pancreatic cancer cell lines ASPC-1 and HS-766T.
The results of the experiments are shown in FIG. 32, where a bar graph indicates the activity of a particular analog as measured by the % LDH release stimulated by each analog for 24 hours, with higher values of LDH released indicating greater anti-neoplastic activity (apoptosis). All analogs were tested at a concentration of 25 μM.

[8] = test system: PC-3 (prostate tumor cell line); experiment: Apoptosis induced DNA fragmentation (agarose gel); assay type: cell-based, human; conditions: PC-3, 25 μM, 48 hours
Experimental: PC-3, a prostate tumor cell line, was treated with 25 μM TOP-008, 50 μM NCO-700, or water for 48 hours. The DNA from each sample was purified by phenol extraction, and the fragmentation was resolved on an agarose gel.

[9] = test system: HS-578T (breast); experiment: Cancer cell death assay (LDH release), HS-578T; assay type: cell-based, human; conditions: for anti-neoplastic activity (LDH release) / potency compared to NCO-700: dose response (FIG. 7)
Experimental: as §2, §3
A series of analogs related to NCO-700 were assayed in the cancer cell death assay. […] It should be stressed that these analogs were tested alone, without any added chemotherapeutic agent.
Based on Experiment 1 above, the anti-cancer activity of NCO-700, TOP-008, and analogs, TOP-201, 202, 203, 204, 205, 206, 207, and 007, was tested in cancer cell death assays of human cancer cell line HS-578T. In FIGS. 34 (1,000 cells/well) and 35 (1,500 cells/well), a bar graph indicates the activity of a particular analog as measured by the % LDH released (DMSO, dimethyl sulfoxide=control), with higher values of LDH released indicating greater anti-neoplastic activity. All analogs were tested at a concentration of 25 μM.

[10] = test system: cancer cell lines; experiment: Cancer cell survival assay, a number of cancer cell lines; assay type: cell-based, human; conditions: FIGS. 26-31, alone
Experimental: as §1, §7

[11] = test system: breast cancer cell lines; experiment: Cancer cell death assay (LDH release), breast lines; assay type: cell-based, human; conditions: compound alone, 24 hours
Experimental: as §2, §3, §4, §5, §6

[12] = test system: colon cancer cell lines; experiment: Cancer cell death assay (LDH release), colon lines; assay type: cell-based, human; conditions: compound alone, 24 hours
Experimental: as §2, §3, §4, §5, §6

[13] = in vivo; cited from earlier work

CCCC[C@@H](C=O)NC(=O)[C@H](CC(C)C)NC(=O)[C@H](CC(C)C)NC(C)=O [Calpain Inhibitor 1, N-acetyl-leu-leu-norleucinal] (Ac-Leu-Leu-[Nle]-aldehyde)
toxicity to the cells [1]: toxic to the cells
toxicity to the cells ([1]; listed as Calpain inhibitor I): its toxicity may be an obstacle
effectiveness in cancer cells having multidrug resistance / induction of cell death [2]: slightly effective

CCOC(=O)[C@H]1O[C@@H]1C(=O)N[C@@H](CC(C)C)C(=O)NCCC(C)C [E-64-d]
cell cycle arrest ([3]; A431 cells, chemically defined medium): arrested at mitotic metaphase
effect on growth of cancer cells ([3]; Shoji-Kasai et al.): slows the growth of cancer cells

CC(C)C[C@H](NC(=O)[C@H]1O[C@@H]1C(=O)O)C(=O)NCCCCN=C(N)N [E-64]
effectiveness in cancer cells having multidrug resistance / induction of cell death [2]: not to be particularly effective in cancer cells having multidrug resistance

CCOC(=O)[C@@H]1O[C@H]1C(=O)N[C@@H](CC(C)C)C(=O)N1CCN(C/C=C/c2ccccc2)CC1 [TOP-008, Bis[ethyl (2R,3R)-3-[(S)-3-methyl-1-[4-(3-phenyl-2-propenyl)piperazin-1-ylcarbonyl]butylcarbamoyl]oxirane-2-carboxylate] Sulfate]
anti-neoplastic activity (LDH release) [4]: excellent activity
effective dose compared with NCO-700 [5]: much lower
induction of apoptosis [6]: induced apoptosis in human breast cancer cells
anti-neoplastic activity (% LDH release) compared with NCO-700 [7]: significantly greater activity than NCO-700 itself
DNA fragmentation [8]: significant DNA fragmentation
anti-neoplastic activity (% LDH released) ([9]; HS-578T, 25 μM, 1,000 and 1,500 cells/well (FIGS. 34, 35)): very good anti-neoplastic activity
kill rate of breast cancer cells relative to NCO-700 ([9]; HS-578T, alone): approximately three-fold
anti-neoplastic activity (LDH release) / potency compared to NCO-700 ([9]; HS-578T, alone): higher potency; also recorded: highest potency
anti-neoplastic potency relative to NCO-700 ([9]; conclusion of Experiment 1): three-fold
anti-neoplastic activity (cell survival) [10]: highly active anti-neoplastic agent (apoptosis agent) and in some cases is much more active than NCO-700
anti-neoplastic activity (LDH release) [11]: excellent activity
anti-neoplastic activity (LDH release) [12]: excellent activity

CC(C)C[C@H](NC(=O)[C@@H]1O[C@H]1C(=O)OCc1ccccc1)C(=O)N1CCN(C/C=C/c2ccccc2)CC1 [TOP-009, Bis[benzyl (2R,3R)-3-[(S)-3-methyl-1-[4-(3-phenyl-2-propenyl)piperazin-1-ylcarbonyl]butylcarbamoyl]oxirane-2-carboxylate] Sulfate]
anti-neoplastic activity (% LDH release) compared with NCO-700 [7]: significantly greater activity than NCO-700 itself
anti-neoplastic activity (LDH release) / potency compared to NCO-700 ([9]; HS-578T, alone): higher potency

CC(C)C[C@H](NC(=O)[C@@H]1O[C@H]1C(=O)Oc1ccccc1)C(=O)N1CCN(C/C=C/c2ccccc2)CC1 [TOP-013, Bis[phenyl (2R,3R)-3-[(S)-3-methyl-1-[4-(3-phenyl-2-propenyl)piperazin-1-ylcarbonyl]butylcarbamoyl]oxirane-2-carboxylate] Sulfate]
anti-neoplastic activity (LDH release) / potency compared to NCO-700 ([9]; HS-578T, alone): higher potency

COc1cccc2c1C(=O)c1c(O)c3c(c(O)c1C2=O)C[C@@](O)(C(=O)CO)C[C@@H]3O[C@H]1C[C@H](N)[C@H](O)[C@H](C)O1 [adriamycin]
side effects [13]: inevitable side effects such as hair loss, weight loss, and liver and kidney damage
